Measurements: ChEMBL document CHEMBL3351986, “Probing linker design in citric acid-ciprofloxacin conjugates” (2014)
In brackets after ≈: the same amount, converted by molar mass. Activity calls are given as the source filed them. No cut-off for these calls is given here.

Legend:
Serratia marcescens [1] = assay: Antimicrobial activity against Serratia marcescens BIG 11 NCTC 1377 after 18 hrs by micro dilution method; type: functional; settings: BIG 11 NCTC 1377, 18 h
Staphylococcus aureus [2] = assay: Ratio of compound MIC to ciprofloxacin MIC for Staphylococcus aureus NCTC 13142 after 18 hrs by micro dilution method; type: functional
Burkholderia cepacia [3] = assay: Antimicrobial activity against Burkholderia cepacia BIG 121 after 18 hrs by micro dilution method; type: functional; settings: BIG 121, 18 h
Burkholderia cepacia [4] = assay: Antimicrobial activity against Burkholderia cepacia BIG 119 after 18 hrs by micro dilution method; type: functional; settings: BIG 119, 18 h
Pseudomonas aeruginosa [5] = assay: Antimicrobial activity against Pseudomonas aeruginosa environmental isolate BIG 39 after 18 hrs by micro dilution method; type: functional; settings: BIG 39, 18 h
[6] = system: Stenotrophomonas maltophilia; assay: Ratio of compound MIC to ciprofloxacin MIC for Stenotrophomonas maltophilia N1119 after 18 hrs by micro dilution method; type: functional
[7] = system: Stenotrophomonas maltophilia; assay: Antimicrobial activity against Stenotrophomonas maltophilia N1127 after 18 hrs by micro dilution method; type: functional; settings: N1127, 18 h
Burkholderia cepacia [8] = assay: Antimicrobial activity against Burkholderia cepacia BIG 117 after 18 hrs by micro dilution method; type: functional; settings: BIG 117, 18 h
Escherichia coli [9] = assay: Antimicrobial activity against Escherichia coli BIG 0046 after 18 hrs by micro dilution method; type: functional; settings: BIG 0046, 18 h
Burkholderia cepacia [10] = assay: Antimicrobial activity against Burkholderia cepacia BIG 9 NCTC 10744 after 18 hrs by micro dilution method; type: functional; settings: BIG 9 NCTC 10744, 18 h
Pseudomonas aeruginosa [11] = assay: Ratio of compound MIC to ciprofloxacin MIC for Pseudomonas aeruginosa BIG 63 after 18 hrs by micro dilution method; type: functional
Burkholderia cepacia [12] = assay: Ratio of compound MIC to ciprofloxacin MIC for Burkholderia cepacia BIG 118 after 18 hrs by micro dilution method; type: functional
Serratia marcescens [13] = assay: Ratio of compound MIC to ciprofloxacin MIC for Serratia marcescens BIG 11 NCTC 1377 after 18 hrs by micro dilution method; type: functional
Escherichia coli [14] = assay: Ratio of compound MIC to ciprofloxacin MIC for Escherichia coli NCTC 10418 after 18 hrs by micro dilution method; type: functional
Pseudomonas aeruginosa [15] = assay: Ratio of compound MIC to ciprofloxacin MIC for Pseudomonas aeruginosa environmental isolate after 18 hrs by micro dilution method; type: functional
Staphylococcus aureus [16] = assay: Ratio of compound MIC to ciprofloxacin MIC for Staphylococcus aureus BIG 52 after 18 hrs by micro dilution method; type: functional
Staphylococcus aureus [17] = assay: Antimicrobial activity against Staphylococcus aureus NCTC 13142 after 18 hrs by micro dilution method; type: functional; settings: NCTC 13142, 18 h
Staphylococcus aureus [18] = assay: Antimicrobial activity against Staphylococcus aureus (Oxford) NCTC 6571 after 18 hrs by micro dilution method; type: functional; settings: (Oxford) NCTC 6571, 18 h
Burkholderia cepacia [19] = assay: Ratio of compound MIC to ciprofloxacin MIC for Burkholderia cepacia BIG 120 after 18 hrs by micro dilution method; type: functional
Pseudomonas aeruginosa [20] = assay: Antimicrobial activity against Pseudomonas aeruginosa BIG 63 after 18 hrs by micro dilution method; type: functional; settings: BIG 63, 18 h
Staphylococcus aureus [21] = assay: Antimicrobial activity against Staphylococcus aureus BIG 52 after 18 hrs by micro dilution method; type: functional; settings: BIG 52, 18 h
Staphylococcus aureus [22] = assay: Ratio of compound MIC to ciprofloxacin MIC for Staphylococcus aureus (Oxford) NCTC 6571 after 18 hrs by micro dilution method; type: functional
[23] = system: Staphylococcus haemolyticus; assay: Antimicrobial activity against Staphylococcus haemolyticus NCTC 11042 after 18 hrs by micro dilution method; type: functional; settings: NCTC 11042, 18 h
Burkholderia cepacia [24] = assay: Antimicrobial activity against Burkholderia cepacia BIG 120 after 18 hrs by micro dilution method; type: functional; settings: BIG 120, 18 h
Burkholderia cepacia [25] = assay: Ratio of compound MIC to ciprofloxacin MIC for Burkholderia cepacia BIG 9 NCTC 10744 after 18 hrs by micro dilution method; type: functional
[26] = system: Staphylococcus epidermidis; assay: Ratio of compound MIC to ciprofloxacin MIC for Staphylococcus epidermidis NCTC 11047 after 18 hrs by micro dilution method; type: functional
[27] = Inhibition of DNA gyrase (unknown origin) assessed as reduction in supercoiled form of DNA at 20 uM using ethidium bromide staining by gel electrophoresis
Burkholderia cepacia [28] = assay: Antimicrobial activity against Burkholderia cepacia BIG 118 after 18 hrs by micro dilution method; type: functional; settings: BIG 118, 18 h
Escherichia coli [29] = assay: Antimicrobial activity against Escherichia coli NCTC 10418 after 18 hrs by micro dilution method; type: functional; settings: NCTC 10418, 18 h
[30] = system: Staphylococcus haemolyticus; assay: Ratio of compound MIC to ciprofloxacin MIC for Staphylococcus haemolyticus NCTC 11042 after 18 hrs by micro dilution method; type: functional
Pseudomonas aeruginosa [31] = assay: Ratio of compound MIC to ciprofloxacin MIC for Pseudomonas aeruginosa BIG 37 clinical isolate after 18 hrs by micro dilution method; type: functional
Pseudomonas aeruginosa [32] = assay: Antimicrobial activity against Pseudomonas aeruginosa BIG 37 clinical isolate after 18 hrs by micro dilution method; type: functional; settings: BIG 37, 18 h
Staphylococcus aureus [33] = assay: Antimicrobial activity against Staphylococcus aureus HG-1 after 18 hrs by micro dilution method; type: functional; settings: HG-1, 18 h
Pseudomonas aeruginosa [34] = assay: Ratio of compound MIC to ciprofloxacin MIC for Pseudomonas aeruginosa NCTC 10662 after 18 hrs by micro dilution method; type: functional
Burkholderia cepacia [35] = assay: Ratio of compound MIC to ciprofloxacin MIC for Burkholderia cepacia BIG 117 after 18 hrs by micro dilution method; type: functional
[36] = system: Stenotrophomonas maltophilia; assay: Antimicrobial activity against Stenotrophomonas maltophilia N1119 after 18 hrs by micro dilution method; type: functional; settings: N1119, 18 h
[37] = system: Staphylococcus epidermidis; assay: Antimicrobial activity against Staphylococcus epidermidis NCTC 2749 after 18 hrs by micro dilution method; type: functional; settings: NCTC 2749, 18 h
[38] = system: Stenotrophomonas maltophilia; assay: Antimicrobial activity against Stenotrophomonas maltophilia N1124 after 18 hrs by micro dilution method; type: functional; settings: N1124, 18 h
[39] = system: Staphylococcus epidermidis; assay: Antimicrobial activity against Staphylococcus epidermidis NCTC 11047 after 18 hrs by micro dilution method; type: functional; settings: NCTC 11047, 18 h
[40] = system: Staphylococcus epidermidis; assay: Ratio of compound MIC to ciprofloxacin MIC for Staphylococcus epidermidis NCTC 2749 after 18 hrs by micro dilution method; type: functional
Staphylococcus aureus [41] = assay: Antimicrobial activity against Staphylococcus aureus NCTC 13143 after 18 hrs by micro dilution method; type: functional; settings: NCTC 13143, 18 h
[42] = system: Stenotrophomonas maltophilia; assay: Ratio of compound MIC to ciprofloxacin MIC for Stenotrophomonas maltophilia N1127 after 18 hrs by micro dilution method; type: functional
Pseudomonas aeruginosa [43] = assay: Antimicrobial activity against Pseudomonas aeruginosa NCTC 10662 after 18 hrs by micro dilution method; type: functional; settings: NCTC 10662, 18 h

## O=C(O)CC(O)(CC(=O)N1CCN(c2cc3c(cc2F)c(=O)c(C(=O)O)cn3C2CC2)CC1)C(=O)O (stereo not given)
Serratia marcescens [1]
  MIC: 1 µg/mL (≈ 1.98 µM)
Staphylococcus aureus [2]
  Ratio: 10.5
Burkholderia cepacia [3]
  MIC: > 36 µg/mL
Burkholderia cepacia [4]
  MIC: > 36 µg/mL
Pseudomonas aeruginosa [5]
  MIC: 4 µg/mL (≈ 7.91 µM)
[6]
  Ratio: 20.1
[7]
  MIC: 32 µg/mL (≈ 63.3 µM)
Burkholderia cepacia [8]
  MIC: 16 µg/mL (≈ 31.7 µM)
Escherichia coli [9]
  MIC: > 36 µg/mL
Burkholderia cepacia [10]
  MIC: 16 µg/mL (≈ 31.7 µM)
Pseudomonas aeruginosa [11]
  Ratio: 10.5
Burkholderia cepacia [12]
  Ratio: 41.8
Serratia marcescens [13]
  Ratio: 11
Escherichia coli [14]
  Ratio: 2.8
Pseudomonas aeruginosa [15]
  Ratio: 10.5
Staphylococcus aureus [16]
  Ratio: 20.9
Staphylococcus aureus [17]
  MIC: 8 µg/mL (≈ 15.8 µM)
Staphylococcus aureus [18]
  MIC: 16 µg/mL (≈ 31.7 µM)
Burkholderia cepacia [19]
  Ratio: 5.2
Pseudomonas aeruginosa [20]
  MIC: 4 µg/mL (≈ 7.91 µM)
Staphylococcus aureus [21]
  MIC: 16 µg/mL (≈ 31.7 µM)
Staphylococcus aureus [22]
  Ratio: 41.8
[23]
  MIC: 16 µg/mL (≈ 31.7 µM)
Burkholderia cepacia [24]
  MIC: 16 µg/mL (≈ 31.7 µM)
Burkholderia cepacia [25]
  Ratio: 20.9
[26]
  Ratio: 83.8
[27]
  inhibition: Active
Burkholderia cepacia [28]
  MIC: 16 µg/mL (≈ 31.7 µM)
Escherichia coli [29]
  MIC: 0.25 µg/mL (≈ 0.495 µM)
[30]
  Ratio: 83.8
Pseudomonas aeruginosa [31]
  Ratio: 5.2
Pseudomonas aeruginosa [32]
  MIC: 16 µg/mL (≈ 31.7 µM)
Staphylococcus aureus [33]
  MIC: > 36 µg/mL
Pseudomonas aeruginosa [34]
  Ratio: 10.5
Burkholderia cepacia [35]
  Ratio: 10.5
[36]
  MIC: 32 µg/mL (≈ 63.3 µM)
[37]
  MIC: 8 µg/mL (≈ 15.8 µM)
[38]
  MIC: > 36 µg/mL
[39]
  MIC: 16 µg/mL (≈ 31.7 µM)
[40]
  Ratio: 20.9
Staphylococcus aureus [41]
  MIC: > 36 µg/mL
[42]
  Ratio: 10.5
Pseudomonas aeruginosa [43]
  MIC: 4 µg/mL (≈ 7.91 µM)

## O=C(O)CC(O)(CC(=O)NCCCCC(=O)N1CCN(c2cc3c(cc2F)c(=O)c(C(=O)O)cn3C2CC2)CC1)C(=O)O (racemic)
Serratia marcescens [1]
  MIC: 4 µg/mL (≈ 6.62 µM)
Burkholderia cepacia [3]
  MIC: > 36 µg/mL
Burkholderia cepacia [4]
  MIC: > 36 µg/mL
Pseudomonas aeruginosa [5]
  MIC: 16 µg/mL (≈ 26.5 µM)
[7]
  MIC: > 36 µg/mL
Burkholderia cepacia [8]
  MIC: > 36 µg/mL
Escherichia coli [9]
  MIC: > 36 µg/mL
Burkholderia cepacia [10]
  MIC: 32 µg/mL (≈ 52.9 µM)
Pseudomonas aeruginosa [11]
  Ratio: 35
Serratia marcescens [13]
  Ratio: 36.5
Escherichia coli [14]
  Ratio: 8.8
Pseudomonas aeruginosa [15]
  Ratio: 35
Staphylococcus aureus [17]
  MIC: > 36 µg/mL
Staphylococcus aureus [18]
  MIC: > 36 µg/mL
Pseudomonas aeruginosa [20]
  MIC: 16 µg/mL (≈ 26.5 µM)
Staphylococcus aureus [21]
  MIC: > 36 µg/mL
[23]
  MIC: > 36 µg/mL
Burkholderia cepacia [24]
  MIC: > 36 µg/mL
Burkholderia cepacia [25]
  Ratio: 35
[27]
  inhibition: Active
Burkholderia cepacia [28]
  MIC: > 36 µg/mL
Escherichia coli [29]
  MIC: 1 µg/mL (≈ 1.65 µM)
Pseudomonas aeruginosa [32]
  MIC: > 36 µg/mL
Staphylococcus aureus [33]
  MIC: > 36 µg/mL
Pseudomonas aeruginosa [34]
  Ratio: 35
[36]
  MIC: > 36 µg/mL
[37]
  MIC: 32 µg/mL (≈ 52.9 µM)
[38]
  MIC: > 36 µg/mL
[39]
  MIC: > 36 µg/mL
[40]
  Ratio: 70
Staphylococcus aureus [41]
  MIC: > 36 µg/mL
Pseudomonas aeruginosa [43]
  MIC: 16 µg/mL (≈ 26.5 µM)
